In US20070213272A1, “Transmucosal Administration Agent Containing Pth” (priority 2004, published 2007):
“And” between values parts separate entries of the source, which are not always exact repeats. Equal entries are not always repeated.

Tests used:
[1] = PTH(1-34) level in plasma after caudal vein and subcutaneous administration (pharmacokinetics); assay type: in vivo, rat
Method: Changes of PTH(1-34) level in plasma by caudal vein administration (iv) and subcutaneous administration (sc) were examined. hPTH(1-34) was diluted with phosphate buffer solution (PBS)/0.05% Tween 80 and adjusted to 10 nmol/ml. Female SD-IGS rats at 8 weeks of age (Charles River Japan, Inc.) were used for the experiment. A single dose administration was carried out by caudal vein administration and subcutaneous administration, and blood was collected from tail vein using a capillary tube for blood collection in a time-dependent manner (at pre-administration, 2.5, 5, 7.5, 10, 15, 30, 60, 90, 120 min.). After EDTA plasma was isolated, the collected blood samples were stored at -80° C. until the hPTH(1-34) level was measured. The PTH(1-34) level was measured by ELISA method using PTH(1-34) (human)-EIA kit (Peninsula Laboratories).

patients = conditions: subcutaneous administration, Neer et al. 2001; cited from earlier work
[2] = system: patients with primary osteoporosis; assay: Safety evaluation: adverse events and side effects in transnasal clinical study; assay type: in vivo, human
Method: […] Here, hPTH1-34 transnasal administration formulation was produced by the method in Example 2 of International Patent Publication No. WO02/02136. Using a nebulizer VP-7 (Valois) which uniformly sprays 100 μL of the drug solution by pumping once, one pumping for each nasal cavity, the total of 200 μL of the drug solution was sprayed daily. […] A single dose containing each amount of hPTH(1-34) was administered once a day on consecutive days of 12 weeks, and effectiveness and safety of each amount was confirmed. Safety evaluation: the occurrence number of adverse events was counted and evaluated. In counting adverse and other events, coding to preferred terms (PT) and classification of adverse event names into system organ classes (SOC) were conducted based on “MedDRA Version6.1”.

[3] = rat, iv (caudal vein) single dose, 10 nmol/ml solution, female SD-IGS rats, plasma
[4] = rat, sc single dose, 10 nmol/ml solution, female SD-IGS rats, plasma
[5] = transnasal, all dose groups, 97 subjects for safety evaluation

Compound: CC[C@H](C)[C@H](NC(=O)[C@H](CCC(=O)O)NC(=O)[C@H](CO)NC(=O)[C@@H](NC(=O)[C@@H](N)CO)C(C)C)C(=O)N[C@@H](CCC(N)=O)C(=O)N[C@@H](CC(C)C)C(=O)N[C@@H](CCSC)C(=O)N[C@@H](Cc1cnc[nH]1)C(=O)N[C@@H](CC(N)=O)C(=O)N[C@@H](CC(C)C)C(=O)NCC(=O)N[C@@H](CCCCN)C(=O)N[C@@H](Cc1cnc[nH]1)C(=O)N[C@@H](CC(C)C)C(=O)N[C@@H](CC(N)=O)C(=O)N[C@@H](CO)C(=O)N[C@@H](CCSC)C(=O)N[C@@H](CCC(=O)O)C(=O)N[C@@H](CCCN=C(N)N)C(=O)N[C@H](C(=O)N[C@@H](CCC(=O)O)C(=O)N[C@@H](Cc1c[nH]c2ccccc12)C(=O)N[C@@H](CC(C)C)C(=O)N[C@@H](CCCN=C(N)N)C(=O)N[C@@H](CCCCN)C(=O)N[C@@H](CCCCN)C(=O)N[C@@H](CC(C)C)C(=O)N[C@@H](CCC(N)=O)C(=O)N[C@@H](CC(=O)O)C(=O)N[C@H](C(=O)N[C@@H](Cc1cnc[nH]1)C(=O)N[C@@H](CC(N)=O)C(=O)N[C@@H](Cc1ccccc1)C(=O)O)C(C)C)C(C)C [hPTH(1-34)]
- PK profile of iv administration compared with sc administration ([1]; iv versus sc single dose, rats): more pulse-like PK
- AUC [1, 3]: 17.8 ng·h/mL
- half-life [1, 3]: 6.9 min
- AUC [1, 4]: 3.83 ng·h/mL
- Cmax [1, 4]: 9 ng/mL
- Tmax [1, 4]: 20 min
- half-life [1, 4]: 10.8 min
- frequency of dizziness (patients): 9%
- frequency of headache (patients): 13%
- frequency of leg cramps (patients): 3%
- frequency of nausea (patients): 18%
- number of adverse events ([2]; transnasal, 250-μg group): 46 events
- number of side effect events ([2]; transnasal, 250-μg group): 12 events
- subjects with adverse events ([2]; transnasal, 250-μg group): 71.0%
- subjects with side effects ([2]; transnasal, 250-μg group): 22.6%
- number of adverse events ([2]; transnasal, 500-μg group): 51 events
- number of side effect events ([2]; transnasal, 500-μg group): 10 events
- subjects with adverse events ([2]; transnasal, 500-μg group): 76.7%
- subjects with side effects ([2]; transnasal, 500-μg group): 26.7%
- number of adverse events ([2]; transnasal, 1,000-μg group): 48 events
- number of side effect events ([2]; transnasal, 1,000-μg group): 13 events
- subjects with adverse events ([2]; transnasal, 1,000-μg group): 69.0%
- subjects with side effects ([2]; transnasal, 1,000-μg group): 24.1%
- number of adverse events ([2]; transnasal, 1,500-μg group): 10 events
- number of side effect events ([2]; transnasal, 1,500-μg group): 2 events
- subjects with adverse events ([2]; transnasal, 1,500-μg group): 71.4%
- subjects with side effects ([2]; transnasal, 1,500-μg group): 28.6%
- frequency of leg cramps ([2]; transnasal, all dose groups): no observation and 0%
- frequency of nausea ([2]; transnasal, all dose groups): no observation and 0%
- number of side effect events ([2]; transnasal, all dose groups): 37 events
- occurrence rate of clinical examination (SOC) ([2]; transnasal, all dose groups): 19.6%
- occurrence rate of dizziness ([2]; transnasal, all dose groups): 4.1%
- occurrence rate of headache ([2]; transnasal, all dose groups): 7.2%
- occurrence rate of heat failure (SOC) ([2]; transnasal, all dose groups): 21.6%
- occurrence rate of infectious disease and parasitic disease (SOC) ([2]; transnasal, all dose groups): 18.6%
- occurrence rate of nasopharyngitis (PT) ([2]; transnasal, all dose groups): 14.4%
- occurrence rate of supraventricular premature beat (PT) ([2]; transnasal, all dose groups): 12.4%
- occurrence rate of ventricular premature beat (PT) ([2]; transnasal, all dose groups): 5.2%
- side effect events with the occurrence rate of 5% or more ([2]; transnasal, all dose groups): no event
- subjects with side effects ([2]; transnasal, all dose groups): 24.7%
- number of adverse events [2, 5]: 155 events
- subjects with adverse events [2, 5]: 72.2%
